Assay results published in patent US4656166A, “Antibiotic compounds derived from cephalosporins, process for their production and pharmaceutical compositions” (Sanofi, priority 1983, dated 1987).
≈ marks a conversion by molar mass, not a printed value.

Experiments:
Assay type in all cases: cell-based
Escherichia coli SOL 90 = assay: MIC, in vitro dilution method, Escherichia coli SOL 90 (Table III); details: SOL90; Escherichia coli SOL 90; dilution method; read-out: MIC
Text: (§1) The products of the invention have been studied as regards their pharmacological properties and, more especially, bacteriostatic action. This has been determined in vitro by the dilution method, and the study was on Gram negative strains.
(§2) Results, expressed in minimum inhibiting concentrations (MIC-- μg/ml), are collected in the following table (Table III).

Klebsiella RO 30 = assay: MIC, in vitro dilution method, Klebsiella RO 30 (Table III); details: RO30; Klebsiella RO 30; dilution method; read-out: MIC
Text: as §1, §2

Enterobacter RO 154 = assay: MIC, in vitro dilution method, Enterobacter RO 154 (Table III); details: RO154; Enterobacter RO 154; dilution method; read-out: MIC
Text: as §1, §2

Pseudomonas RL 112 = assay: MIC, in vitro dilution method, Pseudomonas RL 112 (Table III); details: RL112
Text: as §1, §2

SMILES	MIC (Escherichia coli SOL 90) [µg/mL]	MIC (Klebsiella RO 30) [µg/mL]	MIC (Enterobacter RO 154) [µg/mL]	MIC (Pseudomonas RL 112) [µg/mL]
Cc1c(NC(=O)CN)cccc1C(=O)OCC1=C(C(=O)O)N2C(=O)C(NC(=O)C(=NOC(C)(C)C(=O)O)c3csc(N)n3)C2[S+]([O-])C1 (stereo not shown) [42 585]	0.25 (≈ 0.361 µM)	0.25 (≈ 0.361 µM)	8 (≈ 11.6 µM)	4 (≈ 5.78 µM)
NCC(=O)Nc1cccc(C(=O)SCC2=C(C(=O)O)N3C(=O)C(NC(=O)C(=NOC4(C(=O)O)CCC4)c4csc(N)n4)C3[S+]([O-])C2)c1 (stereo not shown) [compound 42686]	2 (≈ 2.83 µM)	1 (≈ 1.42 µM)	2 (≈ 2.83 µM)	8 (≈ 11.3 µM)
CNCC(=O)Nc1cccc(C(=O)OCC2=C(C(=O)O)N3C(=O)C(NC(=O)C(=NOC(C)(C)C(=O)O)c4csc(N)n4)C3[S+]([O-])C2)c1 (stereo not shown) [42 583]	1 (≈ 1.45 µM)	0.5 (≈ 0.723 µM)	4 (≈ 5.78 µM)	8 (≈ 11.6 µM)
CC(C)(ON=C(C(=O)NC1C(=O)N2C(C(=O)O)=C(COC(=O)C3CCN(C(=O)CCN)CC3)C[S+]([O-])C12)c1csc(N)n1)C(=O)O (stereo not shown) [42 782]	0.25 (≈ 0.366 µM)	0.125 (≈ 0.183 µM)	2 (≈ 2.93 µM)	4 (≈ 5.85 µM)
NCC(=O)N1CCC(C(=O)SCC2=C(C(=O)O)N3C(=O)C(NC(=O)C(=NOC4(C(=O)O)CCC4)c4csc(N)n4)C3[S+]([O-])C2)CC1 (stereo not shown) [compound 42674]	1 (≈ 1.43 µM)	0.5 (≈ 0.717 µM)	2 (≈ 2.87 µM)	8 (≈ 11.5 µM)
CC(C)(ON=C(C(=O)NC1C(=O)N2C(C(=O)O)=C(COC(=O)c3ccc(CN)c(F)c3)C[S+]([O-])C12)c1csc(N)n1)C(=O)O (stereo not shown) [42 581]	0.125 (≈ 0.192 µM)	0.125 (≈ 0.192 µM)	2 (≈ 3.06 µM)	4 (≈ 6.13 µM)
CC(C)(ON=C(C(=O)NC1C(=O)N2C(C(=O)O)=C(COC(=O)c3ccc(NC(=O)CCCN)cc3)C[S+]([O-])C12)c1csc(N)n1)C(=O)O (stereo not shown) [42 688]	0.125 (≈ 0.177 µM)	0.25 (≈ 0.354 µM)	4 (≈ 5.67 µM)	4 (≈ 5.67 µM)
CC(C)(ON=C(C(=O)NC1C(=O)N2C(C(=O)O)=C(COC(=O)c3ccc(CN)c(Br)c3)C[S+]([O-])C12)c1csc(N)n1)C(=O)O (stereo not shown) [42 676]	0.25 (≈ 0.35 µM)	0.25 (≈ 0.35 µM)	2 (≈ 2.8 µM)	8 (≈ 11.2 µM)
CC(N)C(=O)N1CCC(C(=O)OCC2=C(C(=O)O)N3C(=O)C(NC(=O)C(=NOC(C)(C)C(=O)O)c4csc(N)n4)C3[S+]([O-])C2)CC1 (stereo not shown) [42 781]	0.25 (≈ 0.366 µM)	0.125 (≈ 0.183 µM)	2 (≈ 2.93 µM)	4 (≈ 5.85 µM)
CNCC(=O)Nc1ccc(C(=O)OCC2=C(C(=O)O)N3C(=O)C(NC(=O)C(=NOC(C)(C)C(=O)O)c4csc(N)n4)C3[S+]([O-])C2)cc1 (stereo not shown) [42 584]	0.25 (≈ 0.361 µM)	0.25 (≈ 0.361 µM)	2 (≈ 2.89 µM)	4 (≈ 5.78 µM)
CC(N)C(=O)Nc1nc(C(=O)OCC2=C(C(=O)O)N3C(=O)C(NC(=O)C(=NOC(C)(C)C(=O)O)c4csc(N)n4)C3[S+]([O-])C2)cs1 (stereo not shown) [42 857]	0.5 (≈ 0.716 µM)	1 (≈ 1.43 µM)	8 (≈ 11.4 µM)	8 (≈ 11.4 µM)
Cc1cc(CN)ccc1C(=O)OCC1=C(C(=O)O)N2C(=O)C(NC(=O)C(=NOC(C)(C)C(=O)O)c3csc(N)n3)C2[S+]([O-])C1 (stereo not shown) [42 848]	0.125 (≈ 0.193 µM)	0.125 (≈ 0.193 µM)	2 (≈ 3.08 µM)	4 (≈ 6.17 µM)
CC(C)(ON=C(C(=O)NC1C(=O)N2C(C(=O)O)=C(COC(=O)C3CCN(C(=O)CCCN)CC3)C[S+]([O-])C12)c1csc(N)n1)C(=O)O (stereo not shown) [42 783]	0.25 (≈ 0.358 µM)	0.125 (≈ 0.179 µM)	2 (≈ 2.87 µM)	8 (≈ 11.5 µM)
NCCC(=O)Nc1ccc(C(=O)OCC2=C(C(=O)O)N3C(=O)C(NC(=O)C(=NOC4(C(=O)O)CCC4)c4csc(N)n4)C3[S+]([O-])C2)cc1 (stereo not shown) [42 658]	0.125 (≈ 0.178 µM)	0.125 (≈ 0.178 µM)	8 (≈ 11.4 µM)	4 (≈ 5.68 µM)
Cc1cc(CN)ccc1C(=O)SCC1=C(C(=O)O)N2C(=O)C(NC(=O)C(=NOC3(C(=O)O)CCC3)c3csc(N)n3)C2[S+]([O-])C1 (stereo not shown) [compound 42851]	0.5 (≈ 0.739 µM)	0.25 (≈ 0.369 µM)	1 (≈ 1.48 µM)	8 (≈ 11.8 µM)
CC(C)(ON=C(C(=O)NC1C(=O)N2C(C(=O)O)=C(COC(=O)c3ccc(NC(=O)C4CCNCC4)cc3)C[S+]([O-])C12)c1csc(N)n1)C(=O)O (stereo not shown) [42 815]	0.125 (≈ 0.171 µM)	0.25 (≈ 0.342 µM)	8 (≈ 10.9 µM)	8 (≈ 10.9 µM)

SMILES	MIC (Escherichia coli SOL 90) [µg/mL]	MIC (Klebsiella RO 30) [µg/mL]	MIC (Enterobacter RO 154) [µg/mL]	MIC (Pseudomonas RL 112) [µg/mL]
CNCc1ccc(C(=O)OCC2=C(C(=O)O)N3C(=O)C(NC(=O)C(=NOC(C)(C)C(=O)O)c4csc(N)n4)C3[S+]([O-])C2)cc1F (stereo not shown) [42 582]	0.25 (≈ 0.375 µM)	0.25 (≈ 0.375 µM)	2 (≈ 3 µM)	8 (≈ 12 µM)
CC(C)(ON=C(C(=O)NC1C(=O)N2C(C(=O)O)=C(CSC(=O)c3cccc(NC(=O)CN)c3)C[S+]([O-])C12)c1csc(N)n1)C(=O)O (stereo not shown) [compound 42685]	2 (≈ 2.88 µM)	1 (≈ 1.44 µM)	2 (≈ 2.88 µM)	8 (≈ 11.5 µM)
CC(C)(ON=C(C(=O)NC1C(=O)N2C(C(=O)O)=C(COC(=O)c3ccc(NC(=O)CCCCN)cc3)C[S+]([O-])C12)c1csc(N)n1)C(=O)O (stereo not shown) [42 689]	0.125 (≈ 0.174 µM)	0.25 (≈ 0.347 µM)	4 (≈ 5.56 µM)	4 (≈ 5.56 µM)
Cc1cc(CN)ccc1C(=O)SCC1=C(C(=O)O)N2C(=O)C(NC(=O)C(=NOC(C)(C)C(=O)O)c3csc(N)n3)C2[S+]([O-])C1 (stereo not shown) [compound 42850]	0.5 (≈ 0.752 µM)	0.25 (≈ 0.376 µM)	2 (≈ 3.01 µM)	8 (≈ 12 µM)
NCC(=O)Nc1ccc(C(=O)SCC2=C(C(=O)O)N3C(=O)C(NC(=O)C(=NOC4(C(=O)O)CCC4)c4csc(N)n4)C3[S+]([O-])C2)cc1 (stereo not shown) [compound 42665]	0.5 (≈ 0.708 µM)	0.5 (≈ 0.708 µM)	2 (≈ 2.83 µM)	8 (≈ 11.3 µM)
CC(C)(CN)C(=O)SCC1=C(C(=O)O)N2C(=O)C(NC(=O)C(=NOC(C)(C)C(=O)O)c3csc(N)n3)C2[S+]([O-])C1 (stereo not shown) [compound 42663]	4 (≈ 6.49 µM)	1 (≈ 1.62 µM)	4 (≈ 6.49 µM)	8 (≈ 13 µM)
CC(N)C(=O)Nc1ccc(C(=O)OCC2=C(C(=O)O)N3C(=O)C(NC(=O)C(=NOC(C)(C)C(=O)O)c4csc(N)n4)C3[S+]([O-])C2)cc1 (stereo not shown) [42 817]	0.125 (≈ 0.181 µM)	0.25 (≈ 0.361 µM)	4 (≈ 5.78 µM)	4 (≈ 5.78 µM)
Cc1cc(C(=O)SCC2=C(C(=O)O)N3C(=O)C(NC(=O)C(=NOC(C)(C)C(=O)O)c4csc(N)n4)C3[S+]([O-])C2)ccc1CN (stereo not shown) [compound 42661]	0.5 (≈ 0.752 µM)	0.25 (≈ 0.376 µM)	1 (≈ 1.5 µM)	8 (≈ 12 µM)
Cc1cc(NC(=O)CN)c(C)c(C(=O)OCC2=C(C(=O)O)N3C(=O)C(NC(=O)C(=NOC(C)(C)C(=O)O)c4csc(N)n4)C3[S+]([O-])C2)c1 (stereo not shown) [42 814]	0.5 (≈ 0.708 µM)	0.25 (≈ 0.354 µM)	8 (≈ 11.3 µM)	8 (≈ 11.3 µM)
Cc1nc(NC(=O)CN)sc1C(=O)OCC1=C(C(=O)O)N2C(=O)C(NC(=O)C(=NOC(C)(C)C(=O)O)c3csc(N)n3)C2[S+]([O-])C1 (stereo not shown) [42 690]	0.5 (≈ 0.716 µM)	0.5 (≈ 0.716 µM)	8 (≈ 11.4 µM)	4 (≈ 5.72 µM)
CN(C(=O)CN)c1ccc(C(=O)OCC2=C(C(=O)O)N3C(=O)C(NC(=O)C(=NOC(C)(C)C(=O)O)c4csc(N)n4)C3[S+]([O-])C2)cc1 (stereo not shown) [42 657]	0.25 (≈ 0.361 µM)	0.25 (≈ 0.361 µM)	4 (≈ 5.78 µM)	8 (≈ 11.6 µM)
CC(C)(ON=C(C(=O)NC1C(=O)N2C(C(=O)O)=C(COC(=O)c3csc(NC(=O)CCN)n3)C[S+]([O-])C12)c1csc(N)n1)C(=O)O (stereo not shown) [42 587]	0.25 (≈ 0.358 µM)	0.25 (≈ 0.358 µM)	8 (≈ 11.4 µM)	4 (≈ 5.72 µM)
CC(C)(ON=C(C(=O)NC1C(=O)N2C(C(=O)O)=C(COC(=O)C3CCC(N)CC3)C[S+]([O-])C12)c1csc(N)n1)C(=O)O (stereo not shown) [42 811]	0.125 (≈ 0.199 µM)	0.125 (≈ 0.199 µM)	2 (≈ 3.19 µM)	4 (≈ 6.38 µM)
CC(N)C(=O)Nc1ccc(C(=O)OCC2=C(C(=O)O)N3C(=O)C(NC(=O)C(=NOC4(C(=O)O)CCC4)c4csc(N)n4)C3[S+]([O-])C2)cc1 (stereo not shown) [42 818]	0.125 (≈ 0.178 µM)	0.125 (≈ 0.178 µM)	4 (≈ 5.68 µM)	4 (≈ 5.68 µM)
Cc1cc(CN)ccc1C(=O)OCC1=C(C(=O)O)N2C(=O)C(NC(=O)C(=NOC3(C(=O)O)CCC3)c3csc(N)n3)C2[S+]([O-])C1 (stereo not shown) [42 849]	0.125 (≈ 0.189 µM)	0.125 (≈ 0.189 µM)	2 (≈ 3.03 µM)	4 (≈ 6.05 µM)
